The results in this text go back to publication PMC6802645, “6′-Sialylgalactose inhibits vascular endothelial growth factor receptor 2-mediated angiogenesis” (Experimental & Molecular Medicine, 2019).

This assay deals with T1, VEGFR-2 (vascular endothelial growth factor receptor 2) (Homo sapiens, UniProt P35968).
T1 construct: gene KDR; second and third IgG-like domains of VEGFR-2 (VEGFR-2 IG3)
In words: SPR (Biacore T100, VEGFR-2 IG3 immobilized by amine coupling on CM5). The format is binding. For orientation: In SPR one partner is held on a chip, and binding of the other changes the refractive index at the surface.

T1 sequence (P35968 141-320 limits assumed): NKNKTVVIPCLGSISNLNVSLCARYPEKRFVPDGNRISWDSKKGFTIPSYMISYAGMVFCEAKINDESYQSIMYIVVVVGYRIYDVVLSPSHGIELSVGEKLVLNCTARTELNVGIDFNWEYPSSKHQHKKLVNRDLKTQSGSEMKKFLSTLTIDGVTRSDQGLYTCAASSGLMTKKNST

Broadly, the Kd is the free concentration of one partner at which half of the binding sites on the other are occupied at equilibrium, for simple one-to-one binding. Lower therefore signals higher affinity. As to `CC(=O)N[C@H]1[C@H]([C@H](O)[C@H](O)CO)OC(OC[C@H]2OC(O)[C@H](O)[C@@H](O)[C@H]2O)(C(=O)O)C[C@@H]1O` (some centres unmarked) [6SG, 6′-sialylgalactose], the Kd was 2.35 nM.

The molecule `CC(=O)N[C@H]1[C@H]([C@H](O)[C@H](O)CO)OC(OC[C@H]2O[C@@H](O[C@H]3[C@H](O)[C@@H](O)C(O)O[C@@H]3CO)[C@H](O)[C@@H](O)[C@H]2O)(C(=O)O)C[C@@H]1O` (some centres unmarked) [6SL, 6′-sialyllactose] showed a Kd of 3.05 nM.
